Test system: patients with MUM
Experiment: Adverse events regardless of study drug relationship
Type: in vivo, human
Protocol: Routine safety assessments, including laboratory assessments, physical examinations, vital signs and electrocardiograms (ECGs), were conducted at regular intervals throughout the study and more frequently as needed following patient assessment by the treating physician. Adverse events (AEs) were assessed continuously according to the National Cancer Institute Common Terminology Criteria for Adverse Events (NCI-CTCAE) v4.03.

CC1(N)CCN(c2cccnc2NC(=O)c2nc(-c3ncccc3C(F)(F)F)cnc2N)CC1 [LXS196]
ALT increased, all grades (500 mg QD): 3 (27.3) n (%)
ALT increased, grade ≥3 (500 mg QD): 1 (9.1) n (%)
AST increased, all grades (500 mg QD): 4 (36.4) n (%)
AST increased, grade ≥3 (500 mg QD): 1 (9.1) n (%)
Abdominal pain upper, all grades (500 mg QD): 2 (18.2) n (%)
Abdominal pain upper, grade ≥3 (500 mg QD): 0 n (%)
Asthenia, all grades (500 mg QD): 4 (36.4) n (%)
Asthenia, grade ≥3 (500 mg QD): 0 n (%)
Blood creatinine increased, all grades (500 mg QD): 0 n (%)
Blood creatinine increased, grade ≥3 (500 mg QD): 0 n (%)
Constipation, all grades (500 mg QD): 2 (18.2) n (%)
Constipation, grade ≥3 (500 mg QD): 0 n (%)
Decreased appetite, all grades (500 mg QD): 4 (36.4) n (%)
Decreased appetite, grade ≥3 (500 mg QD): 0 n (%)
Dermatitis acneiform, all grades (500 mg QD): 1 (9.1) n (%)
Dermatitis acneiform, grade ≥3 (500 mg QD): 0 n (%)
Diarrhoea, all grades (500 mg QD): 5 (45.5) n (%)
Diarrhoea, grade ≥3 (500 mg QD): 0 n (%)
Dry skin, all grades (500 mg QD): 1 (9.1) n (%)
Dry skin, grade ≥3 (500 mg QD): 0 n (%)
Fatigue, all grades (500 mg QD): 1 (9.1) n (%)
Fatigue, grade ≥3 (500 mg QD): 0 n (%)
Hypotension, all grades (500 mg QD): 4 (36.4) n (%)
Hypotension, grade ≥3 (500 mg QD): 3 (27.3) n (%)
Nasopharyngitis, all grades (500 mg QD): 0 n (%)
Nasopharyngitis, grade ≥3 (500 mg QD): 0 n (%)
Nausea, all grades (500 mg QD): 8 (72.7) n (%)
Nausea, grade ≥3 (500 mg QD): 0 n (%)
Neutropenia, all grades (500 mg QD): 2 (18.2) n (%)
Neutropenia, grade ≥3 (500 mg QD): 1 (9.1) n (%)
Oedema peripheral, all grades (500 mg QD): 1 (9.1) n (%)
Oedema peripheral, grade ≥3 (500 mg QD): 0 n (%)
Patients with ≥1 AE, all grades (500 mg QD): 10 (90.9) n (%)
Patients with ≥1 AE, grade ≥3 (500 mg QD): 4 (36.4) n (%)
Rash, all grades (500 mg QD): 0 n (%)
Rash, grade ≥3 (500 mg QD): 0 n (%)
Vomiting, all grades (500 mg QD): 5 (45.5) n (%)
Vomiting, grade ≥3 (500 mg QD): 0 n (%)
ALT increased, all grades (800 mg QD): 0 n (%)
ALT increased, grade ≥3 (800 mg QD): 0 n (%)
AST increased, all grades (800 mg QD): 0 n (%)
AST increased, grade ≥3 (800 mg QD): 0 n (%)
Abdominal pain upper, all grades (800 mg QD): 0 n (%)
Abdominal pain upper, grade ≥3 (800 mg QD): 0 n (%)
Asthenia, all grades (800 mg QD): 0 n (%)
Asthenia, grade ≥3 (800 mg QD): 0 n (%)
Blood creatinine increased, all grades (800 mg QD): 0 n (%)
Blood creatinine increased, grade ≥3 (800 mg QD): 0 n (%)
Constipation, all grades (800 mg QD): 0 n (%)
Constipation, grade ≥3 (800 mg QD): 0 n (%)
Decreased appetite, all grades (800 mg QD): 0 n (%)
Decreased appetite, grade ≥3 (800 mg QD): 0 n (%)
Dermatitis acneiform, all grades (800 mg QD): 0 n (%)
Dermatitis acneiform, grade ≥3 (800 mg QD): 0 n (%)
Diarrhoea, all grades (800 mg QD): 1 (100) n (%)
Diarrhoea, grade ≥3 (800 mg QD): 0 n (%)
Dry skin, all grades (800 mg QD): 0 n (%)
Dry skin, grade ≥3 (800 mg QD): 0 n (%)
Fatigue, all grades (800 mg QD): 0 n (%)
Fatigue, grade ≥3 (800 mg QD): 0 n (%)
Hypotension, all grades (800 mg QD): 1 (100) n (%)
Hypotension, grade ≥3 (800 mg QD): 1 (100) n (%)
Nasopharyngitis, all grades (800 mg QD): 0 n (%)
Nasopharyngitis, grade ≥3 (800 mg QD): 0 n (%)
Nausea, all grades (800 mg QD): 1 (100) n (%)
Nausea, grade ≥3 (800 mg QD): 0 n (%)
Neutropenia, all grades (800 mg QD): 0 n (%)
Neutropenia, grade ≥3 (800 mg QD): 0 n (%)
Oedema peripheral, all grades (800 mg QD): 0 n (%)
Oedema peripheral, grade ≥3 (800 mg QD): 0 n (%)
Patients with ≥1 AE, all grades (800 mg QD): 1 (100) n (%)
Patients with ≥1 AE, grade ≥3 (800 mg QD): 1 (100) n (%)
Rash, all grades (800 mg QD): 0 n (%)
Rash, grade ≥3 (800 mg QD): 0 n (%)
Vomiting, all grades (800 mg QD): 0 n (%)
Vomiting, grade ≥3 (800 mg QD): 0 n (%)
ALT increased, all grades (1000 mg QD): 1 (25.0) n (%)
ALT increased, grade ≥3 (1000 mg QD): 0 n (%)
AST increased, all grades (1000 mg QD): 0 n (%)
AST increased, grade ≥3 (1000 mg QD): 0 n (%)
Abdominal pain upper, all grades (1000 mg QD): 0 n (%)
Abdominal pain upper, grade ≥3 (1000 mg QD): 0 n (%)
Asthenia, all grades (1000 mg QD): 0 n (%)
Asthenia, grade ≥3 (1000 mg QD): 0 n (%)
Blood creatinine increased, all grades (1000 mg QD): 0 n (%)
Blood creatinine increased, grade ≥3 (1000 mg QD): 0 n (%)
Constipation, all grades (1000 mg QD): 0 n (%)
Constipation, grade ≥3 (1000 mg QD): 0 n (%)
Decreased appetite, all grades (1000 mg QD): 0 n (%)
Decreased appetite, grade ≥3 (1000 mg QD): 0 n (%)
Dermatitis acneiform, all grades (1000 mg QD): 0 n (%)
Dermatitis acneiform, grade ≥3 (1000 mg QD): 0 n (%)
Diarrhoea, all grades (1000 mg QD): 4 (100) n (%)
Diarrhoea, grade ≥3 (1000 mg QD): 0 n (%)
Dry skin, all grades (1000 mg QD): 1 (25.0) n (%)
Dry skin, grade ≥3 (1000 mg QD): 0 n (%)
Fatigue, all grades (1000 mg QD): 3 (75.0) n (%)
Fatigue, grade ≥3 (1000 mg QD): 0 n (%)
Hypotension, all grades (1000 mg QD): 2 (50.0) n (%)
Hypotension, grade ≥3 (1000 mg QD): 1 (25.0) n (%)
Nasopharyngitis, all grades (1000 mg QD): 1 (25.0) n (%)
Nasopharyngitis, grade ≥3 (1000 mg QD): 0 n (%)
Nausea, all grades (1000 mg QD): 4 (100) n (%)
Nausea, grade ≥3 (1000 mg QD): 0 n (%)
Neutropenia, all grades (1000 mg QD): 0 n (%)
Neutropenia, grade ≥3 (1000 mg QD): 0 n (%)
Oedema peripheral, all grades (1000 mg QD): 0 n (%)
Oedema peripheral, grade ≥3 (1000 mg QD): 0 n (%)
Patients with ≥1 AE, all grades (1000 mg QD): 4 (100) n (%)
Patients with ≥1 AE, grade ≥3 (1000 mg QD): 2 (50.0) n (%)
Rash, all grades (1000 mg QD): 0 n (%)
Rash, grade ≥3 (1000 mg QD): 0 n (%)
Vomiting, all grades (1000 mg QD): 0 n (%)
Vomiting, grade ≥3 (1000 mg QD): 0 n (%)
